Experiment [1] concerns the target T1, Alpha-2A adrenergic receptor (Homo sapiens, UniProt P08913).
T1 sequence (P08913 whole entry): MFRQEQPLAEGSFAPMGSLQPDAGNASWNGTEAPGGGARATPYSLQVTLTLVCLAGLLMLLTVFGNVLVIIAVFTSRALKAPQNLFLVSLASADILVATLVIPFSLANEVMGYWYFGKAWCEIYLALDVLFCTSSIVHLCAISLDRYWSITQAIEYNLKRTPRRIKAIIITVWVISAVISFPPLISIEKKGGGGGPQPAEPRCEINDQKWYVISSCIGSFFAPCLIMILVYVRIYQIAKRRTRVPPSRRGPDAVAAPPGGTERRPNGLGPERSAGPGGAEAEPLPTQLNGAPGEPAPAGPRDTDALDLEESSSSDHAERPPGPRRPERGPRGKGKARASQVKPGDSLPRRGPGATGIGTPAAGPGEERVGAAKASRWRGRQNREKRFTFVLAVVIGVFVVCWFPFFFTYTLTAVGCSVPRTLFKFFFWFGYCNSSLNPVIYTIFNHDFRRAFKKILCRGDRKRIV

The target in experiment [2] is T2, Alpha-2B adrenergic receptor (Rattus norvegicus, UniProt P19328).
T2 sequence (P19328 whole entry): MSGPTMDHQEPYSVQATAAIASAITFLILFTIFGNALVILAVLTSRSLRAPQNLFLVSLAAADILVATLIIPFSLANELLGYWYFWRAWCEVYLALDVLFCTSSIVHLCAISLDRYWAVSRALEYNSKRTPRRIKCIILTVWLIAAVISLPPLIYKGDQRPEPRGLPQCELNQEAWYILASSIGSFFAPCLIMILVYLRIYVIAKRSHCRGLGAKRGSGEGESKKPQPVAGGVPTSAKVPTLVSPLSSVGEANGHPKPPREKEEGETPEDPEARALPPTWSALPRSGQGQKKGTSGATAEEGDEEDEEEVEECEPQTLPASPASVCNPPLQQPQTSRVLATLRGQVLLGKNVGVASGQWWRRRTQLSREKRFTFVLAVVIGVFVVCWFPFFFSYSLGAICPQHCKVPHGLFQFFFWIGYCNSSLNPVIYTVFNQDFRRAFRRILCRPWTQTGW

Experiment [3] concerns the target T3, Alpha-2C adrenergic receptor (Homo sapiens, UniProt P18825).
T3 sequence (P18825 whole entry): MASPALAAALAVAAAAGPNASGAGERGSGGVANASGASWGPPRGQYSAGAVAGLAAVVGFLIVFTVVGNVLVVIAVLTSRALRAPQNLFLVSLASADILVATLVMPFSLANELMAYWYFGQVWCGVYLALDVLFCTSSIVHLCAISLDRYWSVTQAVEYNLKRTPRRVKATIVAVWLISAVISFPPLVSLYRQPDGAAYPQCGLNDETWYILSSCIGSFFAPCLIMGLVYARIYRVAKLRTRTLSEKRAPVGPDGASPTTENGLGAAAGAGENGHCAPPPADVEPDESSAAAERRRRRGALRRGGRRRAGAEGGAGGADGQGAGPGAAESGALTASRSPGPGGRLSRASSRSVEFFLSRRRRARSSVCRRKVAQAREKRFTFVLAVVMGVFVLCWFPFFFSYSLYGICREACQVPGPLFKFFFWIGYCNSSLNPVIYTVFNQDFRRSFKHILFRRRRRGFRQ

For experiment [4], the target named is Alpha-2C adrenergic receptor.

Structures are written as SMILES. pKi: −log10 of the molar value. Where “and” joins values, the source holds several entries; their conditions need not be identical. Identical values can stand only once.

For `CN1C[C@H](Cn2ccnc2-c2ccccc2)C[C@@H]2c3cccc4[nH]c(Br)c(c34)C[C@H]21` [BAM-1303], the pKi was 9.41 and 8.87 in experiment [1]; 8.16 in experiment [2]; 9.41 in experiment [3].
As for `COc1cccc(OC)c1OCCNCC1Oc2ccccc2OC1c1ccccc1` (stereo not drawn) [NSC_185453], the pKi was 9.12 in experiment [4]; 9.04 and 8.90 in experiment [1]; 8.10 in experiment [2]; 9.40 in experiment [3].
The compound `COc1ccccc1N1CCN(CCC2C(=O)c3ccccc3C(C)(C)C2=O)CC1` (stereo not drawn) [NSC_122211] had a pKi in experiment [3] of 8.42.
In the case of `O=C1NCN(c2ccccc2)C12CCN(CC1COc3ccccc3O1)CC2` (stereo not drawn) [8-(2,3-Dihydro-benzo[1,4]dioxin-2-ylmethyl)-1-phenyl-1,3,8-triaza-spiro[4.5]decan-4-one], the pKi in experiment [4] was 9.59; in experiment [1], 8.26 and 8.08; in experiment [2], 9.54; in experiment [3], 9.89.
On to `COC(=O)C1=CO[C@@H](C)[C@@H]2CN3CCc4c([nH]c5ccccc45)[C@H]3C[C@H]12` [AKUAMMIGINE], for which the pKi in experiment [4] was 7.70; in experiment [1], 7.15 and 6.98; in experiment [2], 6.80.
Regarding `COC(=O)C1=COC(C)C2CN3CCc4c([nH]c5ccccc45)C3CC12` (stereo not drawn) [Ajmalicine], the values for the pKi in experiment [4], in experiment [1] and in experiment [2] were 8.77, 8.19 and 7.51, respectively.

As usually defined, the pKi is −log10 of the Ki, conventionally taken in molar units. A lower pKi goes with a high Ki.
